The record followed here is publication PMC5104457, “ATP-Competitive MLKL Binders Have No Functional Impact on Necroptosis” (PLoS ONE, 2016).

SMILES strings stand for the structures.

In test [1] the target is T1, full length His-MBP-MLKL-3 (Homo sapiens, UniProt Q8NB16).
T1 construct: The full length MLKL was prepared in baculovirus; made in house; host or cells: baculovirus-infected sf9 insect cells
T1 sequence (Q8NB16 1-471): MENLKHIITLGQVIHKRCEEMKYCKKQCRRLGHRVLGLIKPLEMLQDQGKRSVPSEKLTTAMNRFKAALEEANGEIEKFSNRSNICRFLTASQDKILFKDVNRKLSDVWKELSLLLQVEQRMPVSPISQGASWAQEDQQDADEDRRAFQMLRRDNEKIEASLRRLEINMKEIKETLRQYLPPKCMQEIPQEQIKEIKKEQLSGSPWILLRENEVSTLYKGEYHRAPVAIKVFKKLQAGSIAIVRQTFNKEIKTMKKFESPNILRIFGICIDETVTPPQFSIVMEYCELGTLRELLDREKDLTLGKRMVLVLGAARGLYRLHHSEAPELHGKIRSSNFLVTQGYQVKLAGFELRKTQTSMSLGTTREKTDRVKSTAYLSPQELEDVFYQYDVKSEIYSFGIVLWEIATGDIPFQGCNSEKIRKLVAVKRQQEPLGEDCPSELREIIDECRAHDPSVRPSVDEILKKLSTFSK
Briefly: Second harmonic generation (SHG) conformational assay, full length MLKL. The note with it: 10 μM compound, 20 minutes, mean ± SE. As for the experimental part:
The full length MLKL was prepared in baculovirus using a bacmid DNA which was modified to include a Tev cleavable N-terminal His6 maltose binding protein (His-MBP) tag. His-MBP-MLKL-3 was expressed in baculovirus-infected sf9 insect cells grown in SF-900 II serum-free medium (Invitrogen). Cells were harvested by centrifugation 48 hours post-infection. The cells were resuspended in lysis buffer (50mM TRIS pH 8.0, 500mM NaCl, 10% glycerol, 1mM DTT and Roche EDTA-free protease inhibitor cocktail) and were lysed using a microfluidizer. The lysate was clarified by centrifugation at 20,000 x g for 1 hour at 4°C and the His-MBP-MLKL-3 was captured by batch binding to Nickel NTA resin overnight at 4°C. The resin was washed with buffer A (25mM TRIS pH 8.0, 250mM NaCl, 10% glycerol, 1mM DTT) and loaded into an XK column and washed until no non-specific unbound protein was detected. His-MBP-MLKL3 was eluted from the column using buffer A supplemented with 250mM imidazole pH 8.0 and analyzed by SDS-PAGE. […]
Experiments were performed on a Biodesy Delta System. […] The fundamental is directed to an arrangement of prisms integrated with the custom, glass-bottomed Biodesy Delta Read Plates, where it undergoes total internal reflection (TIR) to generate the evanescent field at the glass-lipid bilayer interface. […]

Test [2] concerns the target T2, RIPK1 kinase domain (Homo sapiens, UniProt Q13546).
T2 construct: purchased DiscoverX
T2 sequence (Q13546 17-289 limits assumed): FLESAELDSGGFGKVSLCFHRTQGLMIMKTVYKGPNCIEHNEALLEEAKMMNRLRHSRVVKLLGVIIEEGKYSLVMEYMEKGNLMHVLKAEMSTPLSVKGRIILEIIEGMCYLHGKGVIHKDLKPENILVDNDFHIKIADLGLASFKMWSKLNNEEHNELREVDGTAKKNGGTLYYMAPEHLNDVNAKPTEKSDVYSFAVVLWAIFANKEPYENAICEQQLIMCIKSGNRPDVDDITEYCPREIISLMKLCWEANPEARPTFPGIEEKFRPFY
Briefly: ATP-competitive probe displacement assay, RIPK1. The note with it: average of duplicates. Type of test: binding. As to the method:
(§1) Compound binding constants (KDs) were determined at DiscoverX using their KINOMEscan assay platform. This competition binding assay was previously described in Karaman et al. (2008)[18]. Briefly, full length MLKL was expressed in HEK-293 cells as a fusion with an NFκB DNA binding domain and subsequently tagged with a qPCR detection amplicon via interaction with NFκB. […] Twenty microliters of binding reactions were carried out in 384-well polypropylene plates for 1 hour at room temperature. Beads were subsequently washed and resuspended in elution buffer for 30 minutes at room temperature with shaking. The concentration of MLKL in the eluates was measured by qPCR and compound binding constants were calculated using a standard dose-response curve.
(§2) A similar approach was used to measure binding affinities for RIPK1 and RIPK3 kinase domains.

Test [3] deals with T3, RIPK3 kinase domain (Homo sapiens, UniProt Q9Y572).
T3 construct: purchased DiscoverX
T3 sequence (Q9Y572 21-287 limits assumed): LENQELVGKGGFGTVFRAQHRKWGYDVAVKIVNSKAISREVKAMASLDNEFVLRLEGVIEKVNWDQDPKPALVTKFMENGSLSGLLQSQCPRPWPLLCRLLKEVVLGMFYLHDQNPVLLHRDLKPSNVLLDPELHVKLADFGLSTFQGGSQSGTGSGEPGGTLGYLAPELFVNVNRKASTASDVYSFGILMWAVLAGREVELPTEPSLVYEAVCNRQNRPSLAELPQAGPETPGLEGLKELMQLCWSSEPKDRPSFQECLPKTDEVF
Briefly: ATP-competitive probe displacement assay, RIPK3. Type of test: binding. As for the experimental part:
as §1, §2

On to `CN(c1ccc(NC(=O)Nc2ccc(OC(F)(F)F)cc2)cc1)c1ccnc(Nc2cccc(S(N)(=O)=O)c2)n1` [cpd 1, reference compound], for which, in test [1], the “% change in SHG intensity, Full-length HisMBP-MLKL-3” value is listed as 25.9 ± 1.6%.
Regarding `Nc1nccnc1C(=O)O[C@@H](C(=O)Nc1ccc(F)cc1)c1ccccc1` [cpd 4, 3-Amino-pyrazine-2-carboxylic acid (R)-(4-fluorophenylcarbamoyl)-phenyl-methyl ester], the Kd in test [2] and in test [3] (average of duplicates) was above 30 µM in each case. Besides, the “displacement of the ATP probe from / binding to RIPK3 (in words)” value in test [3] was “without binding RIPK1 or RIPK3”.
